From patent US10398689B2, “Benzopiperidine derivative, preparation method thereof and medical use thereof” (Jiangsu Hengrui Medicine Co., Ltd., priority 2015, dated 2019) come the findings set out here.

For one series, the system named is MCF7 cells. Description: Inhibition of the proliferation of MCF7 cells (Cell Titer-Glo). To be noted: Homo sapiens, MCF-7 cells, 72 hours, read-out: IC50 value of inhibition effect on the proliferation of MCF7 cells. It counts as cell-based. The gist of the method:
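MCF-7 cells seeded 24 h, then treated with compound (0.5% DMSO final) in 2% FBS medium for 72 h at 37 °C; viability read by CellTiter-Glo luminescence. IC50 from luminescence vs log concentration; maximum inhibition scaled to AZD9496 at 100 nM set as 100%.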
For orientation: Cellular ATP, detected with luciferase, serves as a proxy for viable cell number.

The nature of series [1]: Pharmacokinetics assay in BALB/C nude mice after intragastrical administration. Conditions: female, mouse, po, 3 mg/kg, plasma; for Vd/F: read-out: Apparent Distribution Volume Vz/F; for AUC: read-out: Area Under Curve AUC; for CL/F: read-out: Clearance CL/F; for half-life: read-out: Half-Life t1/2 (converted); for MRT: read-out: Mean Residence Time MRT; for Cmax: read-out: Plasma Conc. Cmax. It counts as in vivo. The method, then:
BALB/C nude mice were used as test animals. The drug concentration in plasma at different time points was determined by LC/MS/MS after intragastrical administration of the compounds of Examples 1, 7, 8, 10, 11, 14, 16, 39 and 42 to BALB/C nude mice. The pharmacokinetic behavior of the compounds of the compounds of the present invention was studied and evaluated in BALB/C nude mice.
Eighty-one (81) female BALB/C nude mice, were equally divided into 9 groups, which were purchased from SINO-BRITSH SIPPR/BK LAB. ANIMAL LTD., CO, with Certificate No.: SOCK (Shanghai) 2008-0016.
The appropriate amount of each test compound was weighed, and successively added with 9% PEG400+0.5% tween 80+0.5% PVP+90% aqueous solution of 0.5% CMC.
After an overnight fasting, 81 female BALB/C nude mice were equally divided into 9 groups; and administered the test compounds intragastrically at an administration volume of 0.2 mL/10 g.
81 female Balb/C nude mice were administered the test compounds intragastrically after an overnight fasting. Blood (0.1 mL) was taken (3 animals at each time point) at 0.5, 1.0, 2.0, 4.0, 6.0, 8.0, 11.0, and 24.0 h after administration. The samples were stored in heparinized test tubes, and centrifuged for 10 minutes at 3,500 rpm to separate the blood plasma. The plasma samples were stored at −20° C.
The concentration of the prototype drug in the plasma and in the solution to be administered was determined by liquid chromatography tandem mass spectrometry (LC/MS MS).

The AUC is concentration integrated over time. The MRT is a mean duration of stay, worked out from the concentration-time curve. Broadly, the Cmax is the maximum level reached in the sampled fluid or tissue. As to `CC(C)c1ccc(N2[C@H](c3ccc(/C=C/C(=O)O)cc3)c3ccc(-c4cnn(C)c4)cc3C[C@H]2C)cc1` [Example 42, (E)-3-(4-((1R,3R)-2-(4-Isopropylphenyl)-3-methyl-6-(1-methyl-1H-pyrazol-4-yl)-1,2,3,4-tetrahydroisoquinolin-1-yl)phenyl)acrylic acid], in the series with MCF7 cells, the IC50 was 0.34 nM. Besides, in series [1], the Vd/F stood at 3.1 L/kg, the AUC stood at 11200 ng·h/mL, the CL/F was found to be 4.46 mL/min/kg and the half-life was 8.04 h. Moreover, in series [1], the mean residence time (MRT) was found to be 9.21 h and the Cmax was determined as 1270 ng/mL.

`CCn1cc(-c2ccc3c(c2)C[C@@H](C)N(c2ccc(C4CC4)cc2)[C@@H]3c2ccc(/C=C/C(=O)O)cc2)cn1` [Example 14, (E)-3-(4-((1R,3R)-2-(4-Cyclopropylphenyl)-6-(1-ethyl-1H-pyrazol-4-yl)-3-methyl-1,2,3,4-tetrahydroisoquinolin-1-yl)phenyl)acrylic acid]: the IC50 with MCF7 cells stood at 0.53 nM. In series [1], the Vd/F was 1.26 L/kg, the AUC stood at 14800 ng·h/mL, the CL/F is 3.39 mL/min/kg and the half-life was 4.29 h. Further, in series [1], the MRT came out at 6.73 h and the Cmax came out at 2480 ng/mL.

Regarding `CCn1cc(-c2ccc3c(c2)C[C@@H](C)N(c2ccc(C(C)C)cc2)[C@@H]3c2ccc(/C=C/C(=O)O)cc2)cn1` [Example 8, (E)-3-(4-((1R,3R)-6-(1-Ethyl-1H-pyrazol-4-yl)-2-(4-isopropylphenyl)-3-methyl-1,2,3,4-tetrahydroisoquinolin-1-yl)phenyl)acrylic acid], in the series on MCF7 cells, the IC50 was 0.17 nM. Further, in series [1], the Vd/F was found to be 1.51 L/kg, the AUC turned out to be 9380 ng·h/mL, the CL/F is 5.33 mL/min/kg and the half-life is 3.27 h. Also, in series [1], the MRT turned out to be 5.26 h and the highest concentration (Cmax) amounted to 1620 ng/mL.

As to `CCc1ccc(N2C(C)Cc3cc(-c4cnn(C)c4)ccc3C2c2ccc(/C=C/C(=O)O)cc2)cc1` [Example 1, (E)-3-(4-((1R,3R/1S,3S)-2-(4-Ethylphenyl)-3-methyl-6-(1-methyl-1H-pyrazol-4-yl)-1,2,3,4-tetrahydroisoquinolin-1-yl)phenyl)acrylic acid], in the series on MCF7 cells, the IC50 is 0.37 nM. In series [1], the Vd/F was 0.865 L/kg, the area under the curve (AUC) stood at 14400 ng·h/mL, the CL/F came out at 3.48 mL/min/kg and the half-life is 2.87 h. In addition, in series [1], the mean residence time (MRT) was found to be 4.53 h and the Cmax is 3440 ng/mL.

Consider `C[C@@H]1Cc2cc(-c3cnn(C)c3)ccc2[C@@H](c2ccc(/C=C/C(=O)O)cc2)N1c1ccc(C2CC2)cc1` [Example 11, (E)-3-(4-((1R,3R)-2-(4-Cyclopropylphenyl)-3-methyl-6-(1-methyl-1H-pyrazol-4-yl)-1,2,3,4-tetrahydroisoquinolin-1-yl)phenyl)acrylic acid], for which the IC50 with MCF7 cells was determined as 1.47 nM. Further, in series [1], the Vd/F worked out at 1.48 L/kg, the area under the curve (AUC) came out at 16400 ng·h/mL, the CL/F stood at 3.06 mL/min/kg and the half-life was 5.58 h. In series [1], the mean residence time (MRT) was determined as 7.9 h and the Cmax came to 1890 ng/mL.

In the case of `CCn1cc(-c2ccc3c(c2)CC(C)N(c2ccc(C(C)C)cc2)C3c2ccc(/C=C/C(=O)O)cc2)cn1` [Example 7, (E)-3-(4-((1R,3R/1S,3S)-6-(1-Ethyl-1H-pyrazol-4-yl)-2-(4-isopropylphenyl)-3-methyl-1,2,3,4-tetrahydroisoquinolin-1-yl)phenyl)acrylic acid], in the series with MCF7 cells, the IC50 was found to be 0.86 nM. Moreover, in series [1], the Vd/F worked out at 1.23 L/kg, the exposure (AUC) stood at 12900 ng·h/mL, the CL/F was 3.88 mL/min/kg and the half-life is 3.67 h. Besides, in series [1], the MRT worked out at 6.8 h and the peak concentration (Cmax) turned out to be 1280 ng/mL.
